Data: patent US8242152B2, “Use of 4-[(4-thiazolyl)phenoxy]alkoxy-benzamidine derivatives for the prophylaxis and treatment of osteoporosis” (Dong Wha Pharmaceutical Co., Ltd., priority 2001, dated 2012)
“And” between values parts separate entries of the source, which are not always exact repeats. Equal entries are not always repeated. Where two headings read alike, the source gives them in different places.

How the values were obtained:
[1] = test system: osteoclast differentiation; test: Inhibitory effects on osteoclast differentiation, co-culture of bone marrow cells and osteoblast, TRAP staining (Example 1); assay type: cell-based, mice; conditions: 7-day co-culture; for inhibition at 0.0032 µM / inhibition at 0.016 µM / inhibition at 0.08 µM / inhibition at 0.4 µM / IC50: Mus musculus, Osteoclast, 168 h; for inhibition at 0.0032 µM / inhibition at 0.016 µM / inhibition at 0.08 µM / inhibition at 0.4 µM: read-out: % inhibitory action
Description: The effects of each test substance on osteoclast proliferation and differentiation process were evaluated via co-culture with osteoblast.
Tibia and Femora were aseptically ectomized from male ddY mice of 6-8 weeks to harvest bone marrow cells by using a syringe (21 G, Korea Green Cross).
The bone marrow cells were suspended in 5 mL α-MEM medium (Gibco BRL Co.) containing sodium bicarbonate (2.0 g/L), streptomycin (100 mg/L) and penicillin ([…]). The harvested cells were centrifuged at 800×g for 5 minutes to collect the whole quantity. To remove the red blood cells within bone marrow cells, 3 mL of Tris HCl (0.83% NH4Cl, pH7.5) was added and well mixed. After centrifuging the above cells, the numbers of bone marrow cells were counted and then the bone marrow cells were immediately used for a co-culture system with osteoblast.
The calvaria were aseptically ectomized from neonate ICR mice of 1-2 days, washed with PBS solution and incubated with a mixture of enzyme solutions (0.2% collagenase and 0.1% dispase) at 37° C. gentle shaker. This procedure was sequentially repeated (10, 10, 10, 20, 20 and 20 minutes), and then the calvaria cells having the characteristics of osteoblast, were mostly released from III˜VI digestion groups, were collected and washed with the medium (serum-free α-MEM). The washed cells were cultivated in α-MEM medium containing 10% FBS for 2-3 days. After subculturing, these cells were used for this experiment, and diluted to reach the concentration of 1×10^6 cells/mL for storage at −70° C.
The volume of final specimen added to the medium was determined at the ratio of 1:1000.
Bone marrow cells, so prepared from the above No. 1, and osteoblast from calvaria were co-cultured for osteoclast differentiation. Both bone marrow cells (25,000 cells/cm^2) and osteoblast (10,000 cells/cm^2) were plated on a 96 well plate in α-MEM medium containing 10% FBS with the specimen, and then the reaction mixture was cultured for 7 days. Some differentiation factors, such as dexamethasone (10^−6M) and vitamin D3(10^−9M), were also continuously added to the medium from the first day of cultivation. The media were changed with fresh media containing a mixture of specimens and differentiation factors every 2-3 day.
TRAP was used as a marker to measure osteoclast in consideration of its characteristics showing a positive reaction to TRAP staining solution. TRAP staining solution was prepared in a manner such that 5 mg of naphtol AS-MS phosphate (sigma N-4875), a substrate and 25 mg of coloring agent (Fast Red Violet LB salt) were dissolved in N,N-dimethylformamide (about 0.5 mL) and with the addition of 0.1N NaHCO3 buffer solution (50 mL) containing 50 mM of tartaric acid. The reaction mixture was stored in a refrigerator prior to use.
After a 7-day culture, the medium was removed from the wells and then the cells were washed once with PBS solution and fixed to PBS containing 10% formalin for 2-5 minutes. The cells were also fixed in a mixed solution, ethanol and acetone (1/1), for about 1 minute, and dried off. The cells were further treated by TRAP staining solution for 15 minutes and washed with PBS to measure the experimental results with the staining degree of cells under a microscopic examination.
The counts of osteoclast only with more than 3 nuclei showing the TRAP-positive reaction were calculated under a microscopic examination, and each test was reconfirmed over three times to insure more reliable data.
As shown in the following table 1, the inhibitory effect of each experimental group on the differentiation of osteoclast versus controls were expressed by inhibitory percentage value, and 50% inhibitory concentration on osteoclast differentiation was calculated as IC50.

MC3T3-E1 cells = test: Alkaline phosphatase (ALP) activity to measure osteoblast activity (Example 4); assay type: cell-based; conditions: 10^−8M; two weeks culture
Description: This experiment is designed to evaluate the differentiation and activity of osteoblast via ALP activity having a close relationship with osteoblastic bone formation (Y. Wada et al., Bone, 22,479-485, 1998).
MC3T3-E1 cells (3,000 cells/well) derived from osteoblast were placed on a 96 well plate and after 24-hour culture the media were changed with fresh medium containing various differentiation factors such as ascorbic acid (100 ug/ml) and β-glycerophosphatic acid (5 mM). The medium was also treated with test substances and the medium, containing differentiation factors and the specimen, was changed with a fresh medium every 3 days.
The culture was terminated after two weeks to measure ALP activity. With the removal of the supernatant, 0.5% Triton X-100 were added for the lysis of cells. 100 ul of p-nitrophenylphosphate (1.21 mM) was added to 50 ul of above mixture. The mixture was incubated at 37° C. for 30 mins and with the addition of 0.2N sodium hydroxide (50 ul), the reaction was terminated. The standard curve was indicated at the absorbance of 405 nm using p-nitrophenol as a standard material and then the absorbance of test substances, so reacted, was measured to observe the production amount of p-nitrophenol.
As shown in the following table 4, the units of ALP activity were determined as the amount of p-nitrophenol (nM) produced per time (per min or hour)/1 ug protein after measuring the amounts of protein contained in the reaction mixture of each test substance.

LTB4 receptor = LTB4 receptor (Homo sapiens, UniProt Q15722); design: endogenous in cells; host or cells: human neutrophils (PMN) purified from fresh blood; conditions: cited from earlier work
Chain of LTB4 receptor (Q15722 whole entry): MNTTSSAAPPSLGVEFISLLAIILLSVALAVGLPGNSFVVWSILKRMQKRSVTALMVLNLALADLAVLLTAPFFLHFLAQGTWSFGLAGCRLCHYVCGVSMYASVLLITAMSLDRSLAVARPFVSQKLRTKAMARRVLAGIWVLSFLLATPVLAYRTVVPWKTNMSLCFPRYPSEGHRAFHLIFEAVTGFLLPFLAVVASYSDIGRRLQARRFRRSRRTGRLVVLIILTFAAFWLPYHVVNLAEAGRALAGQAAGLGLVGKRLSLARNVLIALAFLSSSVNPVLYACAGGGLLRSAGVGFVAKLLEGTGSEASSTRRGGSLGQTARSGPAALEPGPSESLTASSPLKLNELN

Row | Compound | % inhibitory action ([1]; 3.2 nM) [%] | % inhibitory action ([1]; 16 nM) [%] | % inhibitory action ([1]; 80 nM) [%] | % inhibitory action ([1]; 400 nM) [%] | ALP activity (units) (MC3T3-E1 cells) | Inhibition (%) of LTB4 receptor binding (LTB4 receptor; 100 nM) [%] | Inhibition (%) of LTB4 receptor binding (LTB4 receptor; 1 uM) [%] | inhibition at 0.0032 µM ([1]; 3.2 nM) [%] | inhibition at 0.016 µM ([1]; 16 nM) [%] | inhibition at 0.08 µM ([1]; 80 nM) [%] | inhibition at 0.4 µM ([1]; 400 nM) [%] | IC50 [1] [µM] | Inhibition (%) of LTB4 receptor binding (LTB4 receptor; 100 nM, 0.1 µM) | Inhibition (%) of LTB4 receptor binding (LTB4 receptor; 100 nM, listed as 1350, 0.1 µM) [%]
1 | 4-[5-[4-(aminoiminomethyl)phenoxy]pentoxy]-3-methoxy-N,N-bis(1-methylethyl)benzamide maleic acid [CGS-25019C] | −8.9 | 8.3 | 0.0 | 17.7 | 15.0 |  |  |  |  |  |  |  |  | 
2 | Cc1nc(-c2ccc(OCCCCOc3ccc(C(=N)N)cc3)cc2)c(C(C)C)s1 [DW1351, 4-{4-[4-(5-isopropyl-2-methyl-1,3-thiazol-4-yl)phenoxy]butoxy}-benzamidine] |  |  |  |  |  | 89 | 100 |  |  |  |  |  |  | 
3 | Cc1nc(-c2ccc(OCCCCCOc3ccc(C(=N)NO)cc3)cc2)c(C(C)C)s1 [DW1350, N-hydroxy-4-{5-[4-(5-isopropyl-2-methyl-1,3-thiazol-4-yl)phenoxy]pentoxy}-benzamidine] |  |  |  |  | 19.8 |  | 92.3 | 1 | 68.8 | 82.3 | 88 | 0.0199 | 10% and < 10% | <10
4 | Cc1nc(-c2ccc(OCCCCOc3ccc(C(=N)NO)cc3)cc2)c(C(C)C)s1 [DW1349, N— hydroxy-4-{4-[4-(5-isopropyl-2-methyl-1,3-thiazol-4-yl)phenoxy]butoxy}-benzamidine] |  |  |  |  |  | 32.7 | 87.2 |  |  |  |  |  |  | 
5 | COc1cc(C(=O)N(C(C)C)C(C)C)ccc1OCCCCOc1ccc2c(N)noc2c1 [HS1141, N,N-diisopropyl-4-[4-(3-aminobenzo[d]isooxazole-6-yloxy)butoxy]-3-methoxybenzamide] |  |  |  |  | 15.2 |  | 100 | 1.2 | 3 | 12 | 23.5 |  |  | 
6 | Cc1nc(-c2ccc(OCCCCCOc3ccc(C(=N)N)cc3)cc2)c(C(C)C)s1 [DW1352, 4-{5-[4-(5-isopropyl-2-methyl-1,3-thiazol-4-yl)phenoxy]pentoxy}-benzamidine] |  |  |  |  | 17.1 | 88 | 100 | 50 | 81.8 | 83.9 | 92.7 | 0.00125 |  | 
